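96-well plates; 48 h exposure; 5 concentrations. Endpoints by linear interpolation between flanking doses. Not reached: highest tested concentration assigned. At the GI50, growth is halved. TGI: concentration producing complete growth inhibition.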
Key:
Experiment in all cases: DTP human tumour cell line panel, 48 h
786-0 renal = system: 786-0 renal
A498 renal = system: A498 renal
A549 NSCLC = system: A549 NSCLC
ACHN renal = system: ACHN renal
BT-549 breast = system: BT-549 breast
CAKI-1 renal = system: CAKI-1 renal
CCRF-CEM leukemia = system: CCRF-CEM leukemia
COLO 205 colon = system: COLO 205 colon
DU-145 prostate = system: DU-145 prostate
EKVX NSCLC = system: EKVX NSCLC
HCC-2998 colon = system: HCC-2998 colon
HCT-116 colon = system: HCT-116 colon
HCT-15 colon = system: HCT-15 colon
HL-60(TB) leukemia = system: HL-60(TB) leukemia
HOP-62 NSCLC = system: HOP-62 NSCLC
HOP-92 NSCLC = system: HOP-92 NSCLC
HS 578T breast = system: HS 578T breast
HT29 colon = system: HT29 colon
IGROV1 ovarian = system: IGROV1 ovarian
K-562 leukemia = system: K-562 leukemia
KM12 colon = system: KM12 colon
LOX IMVI melanoma = system: LOX IMVI melanoma
M14 melanoma = system: M14 melanoma
MALME-3M melanoma = system: MALME-3M melanoma
MCF7 breast = system: MCF7 breast
MDA-MB-231 breast = system: MDA-MB-231 breast
MDA-MB-435 = system: MDA-MB-435
MDA-MB-468 breast = system: MDA-MB-468 breast
MOLT-4 leukemia = system: MOLT-4 leukemia
NCI-H226 lung = system: NCI-H226 lung
NCI-H23 lung = system: NCI-H23 lung
NCI-H460 lung = system: NCI-H460 lung
NCI-H522 lung = system: NCI-H522 lung
NCI/ADR-RES ovarian = system: NCI/ADR-RES ovarian
OVCAR-3 ovarian = system: OVCAR-3 ovarian
OVCAR-4 ovarian = system: OVCAR-4 ovarian
OVCAR-5 ovarian = system: OVCAR-5 ovarian
OVCAR-8 ovarian = system: OVCAR-8 ovarian
PC-3 prostate = system: PC-3 prostate
RPMI-8226 leukemia = system: RPMI-8226 leukemia
RXF 393 renal = system: RXF 393 renal
SF-268 CNS = system: SF-268 CNS
SF-295 CNS = system: SF-295 CNS
SF-539 CNS = system: SF-539 CNS
SK-MEL-2 melanoma = system: SK-MEL-2 melanoma
SK-MEL-28 melanoma = system: SK-MEL-28 melanoma
SK-MEL-5 melanoma = system: SK-MEL-5 melanoma
SK-OV-3 ovarian = system: SK-OV-3 ovarian
SN12C renal = system: SN12C renal
SNB-19 CNS = system: SNB-19 CNS
SNB-75 CNS = system: SNB-75 CNS
SR leukemia = system: SR leukemia
SW-620 colon = system: SW-620 colon
T-47D breast = system: T-47D breast
TK-10 renal = system: TK-10 renal
U251 CNS = system: U251 CNS
UACC-257 melanoma = system: UACC-257 melanoma
UACC-62 melanoma = system: UACC-62 melanoma
UO-31 renal = system: UO-31 renal

In the case of O=C(c1ccc(Cl)cc1)C1[C@H](c2ccccc2Cl)[C@@H](c2ccccc2)NC12C(=O)Nc1ccc(Cl)cc12 (stereo partly drawn), the GI50 (786-0 renal) is reported as 19.1 µM, the TGI (786-0 renal) is reported as 39.7 µM and the GI50 (A498 renal) is reported as 19.9 µM. The TGI (A498 renal) was 46.6 µM, the GI50 (A549 NSCLC) was 18.5 µM and the TGI (A549 NSCLC) was 46.1 µM. It also gave a GI50 (ACHN renal) of 25.5 µM, a TGI (ACHN renal) of 79.5 µM and a GI50 (BT-549 breast) of 16.2 µM. For the same molecule, the TGI (BT-549 breast) was 33.3 µM, the GI50 (CAKI-1 renal) was 15.2 µM and the TGI (CAKI-1 renal) was 43.5 µM. For the same molecule, the GI50 (CCRF-CEM leukemia) was 26.7 µM, the TGI (CCRF-CEM leukemia) was 72.9 µM and the GI50 (COLO 205 colon) was 16.5 µM. It also gave a TGI (COLO 205 colon) of 30.1 µM, a GI50 (DU-145 prostate) of 20.1 µM and a TGI (DU-145 prostate) of 42.7 µM. For the same molecule, the GI50 (EKVX NSCLC) was 18 µM, the TGI (EKVX NSCLC) was 47.6 µM and the GI50 (HCC-2998 colon) was 16.3 µM. For the same molecule, the TGI (HCC-2998 colon) was 32.7 µM, the GI50 (HCT-116 colon) was 14.6 µM and the TGI (HCT-116 colon) was 28.2 µM. The GI50 (HCT-15 colon) was 16.1 µM, the TGI (HCT-15 colon) was 31.3 µM and the GI50 (HL-60(TB) leukemia) was 19.9 µM. It also gave a TGI (HL-60(TB) leukemia) of 52.5 µM, a GI50 (HOP-62 NSCLC) of 14.8 µM and a TGI (HOP-62 NSCLC) of 29.3 µM. The GI50 (HOP-92 NSCLC) was 16 µM, the TGI (HOP-92 NSCLC) was 33.8 µM and the GI50 (HS 578T breast) was 16.5 µM. The TGI (HS 578T breast) was 40.2 µM, the GI50 (HT29 colon) was 15.6 µM and the TGI (HT29 colon) was 32.5 µM. The GI50 (IGROV1 ovarian) was 16.7 µM, the TGI (IGROV1 ovarian) was 38.5 µM and the GI50 (K-562 leukemia) was 26.6 µM. It also gave a TGI (K-562 leukemia) of over 100 µM, a GI50 (KM12 colon) of 18.2 µM and a TGI (KM12 colon) of 38.1 µM. The GI50 (LOX IMVI melanoma) was 14.9 µM, the TGI (LOX IMVI melanoma) was 28.1 µM and the GI50 (M14 melanoma) was 15.3 µM. The TGI (M14 melanoma) was 28.7 µM, the GI50 (MALME-3M melanoma) was 15.4 µM and the TGI (MALME-3M melanoma) was 29 µM. It also gave a GI50 (MCF7 breast) of 17.6 µM, a TGI (MCF7 breast) of 42.6 µM and a GI50 (MDA-MB-231 breast) of 15.6 µM. It also gave a TGI (MDA-MB-231 breast) of 29.5 µM, a GI50 (MDA-MB-435) of 16 µM and a TGI (MDA-MB-435) of 30.3 µM. The GI50 (MDA-MB-468 breast) was 11.8 µM, the TGI (MDA-MB-468 breast) was 25.8 µM and the GI50 (MOLT-4 leukemia) was 23.6 µM. For the same molecule, the TGI (MOLT-4 leukemia) was 78.7 µM, the GI50 (NCI-H226 lung) was 14.9 µM and the TGI (NCI-H226 lung) was 30.3 µM. It also gave a GI50 (NCI-H23 lung) of 16.2 µM, a TGI (NCI-H23 lung) of 33.2 µM and a GI50 (NCI-H460 lung) of 19 µM. It also gave a TGI (NCI-H460 lung) of 36.3 µM, a GI50 (NCI-H522 lung) of 13.7 µM and a TGI (NCI-H522 lung) of 30.3 µM. The GI50 (NCI/ADR-RES ovarian) was 16.3 µM, the TGI (NCI/ADR-RES ovarian) was 33.2 µM and the GI50 (OVCAR-3 ovarian) was 16.8 µM. For the same molecule, the TGI (OVCAR-3 ovarian) was 35.3 µM, the GI50 (OVCAR-4 ovarian) was 20.8 µM and the TGI (OVCAR-4 ovarian) was 58.4 µM. For the same molecule, the GI50 (OVCAR-5 ovarian) was 15.9 µM, the TGI (OVCAR-5 ovarian) was 31.6 µM and the GI50 (OVCAR-8 ovarian) was 17.9 µM. For the same molecule, the TGI (OVCAR-8 ovarian) was 39.5 µM, the GI50 (PC-3 prostate) was 15.1 µM and the TGI (PC-3 prostate) was 36.1 µM. It also gave a GI50 (RPMI-8226 leukemia) of 25.6 µM, a TGI (RPMI-8226 leukemia) of 79.7 µM and a GI50 (RXF 393 renal) of 13.9 µM. For the same molecule, the TGI (RXF 393 renal) was 29.3 µM, the GI50 (SF-268 CNS) was 19.5 µM and the TGI (SF-268 CNS) was 48.2 µM. It also gave a GI50 (SF-295 CNS) of 16.9 µM, a TGI (SF-295 CNS) of 34.8 µM and a GI50 (SF-539 CNS) of 16.9 µM. It also gave a TGI (SF-539 CNS) of 32.6 µM, a GI50 (SK-MEL-2 melanoma) of 16.2 µM and a TGI (SK-MEL-2 melanoma) of 32.7 µM. It also gave a GI50 (SK-MEL-28 melanoma) of 17.1 µM, a TGI (SK-MEL-28 melanoma) of 31.6 µM and a GI50 (SK-MEL-5 melanoma) of 16.6 µM. It also gave a TGI (SK-MEL-5 melanoma) of 30.6 µM, a GI50 (SK-OV-3 ovarian) of 21 µM and a TGI (SK-OV-3 ovarian) of 61.2 µM. The GI50 (SN12C renal) was 15.3 µM, the TGI (SN12C renal) was 28.7 µM and the GI50 (SNB-19 CNS) was 23.1 µM. The TGI (SNB-19 CNS) was 78.9 µM, the GI50 (SNB-75 CNS) was 11.1 µM and the TGI (SNB-75 CNS) was 36.9 µM. For the same molecule, the GI50 (SR leukemia) was 18.5 µM, the TGI (SR leukemia) was 47.7 µM and the GI50 (SW-620 colon) was 15.9 µM. It also gave a TGI (SW-620 colon) of 31.8 µM, a GI50 (T-47D breast) of 16.1 µM and a TGI (T-47D breast) of 39.6 µM. It also gave a GI50 (TK-10 renal) of 19.6 µM, a TGI (TK-10 renal) of 53.2 µM and a GI50 (U251 CNS) of 16.8 µM. The TGI (U251 CNS) was 33 µM, the GI50 (UACC-257 melanoma) was 20.4 µM and the TGI (UACC-257 melanoma) was 44.1 µM. It also gave a GI50 (UACC-62 melanoma) of 13.4 µM, a TGI (UACC-62 melanoma) of 26.7 µM and a GI50 (UO-31 renal) of 12.9 µM. The TGI (UO-31 renal) was 37.7 µM.

Source: PubChem BioAssay (NCI)
